Data from US20190083498A1, “THERAPIES FOR HEMATOLOGIC MALIGNANCIES” (GILEAD CALISTOGA LLC, priority 2008, published 2019).

What was measured:
[1] = test system: CLL cells with or without StromaNKTert; assay: CLL cell viability/apoptosis in stromal co-culture, Annexin V/PI FACS; assay type: cell-based, human; conditions: 100 nM alone; two patients; 24 hours
Protocol: CLL cell and stromal cell co-cultures: CLL cells were cultured under standardized conditions on stromal cell lines or primary NLC. Briefly, stromal cells were seeded one day prior to each experiment onto 24-well plates (Corning Life Sciences) at a concentration of 3×10^5 cells/mL/well and incubated at 37° C. in 5% CO2. Stromal cell confluence was confirmed by phase contrast microscopy, and CLL cells were then added onto the stromal cell layer at a concentration of 3×10^6 cells/mL. Cultures were then treated with compounds for the specified time periods. CLL cells were removed for analysis by gentle pipetting with media, and were then washed in PBS prior to analysis. A 24-hour co-culture time point was used unless otherwise indicated.
Cell viability testing and reagents: CLL cell viability was determined by analysis of Annexin V-FITC (BD Biosciences, San Diego, Calif.) and Propidium Iodine (PI) (Sigma) by FACS.
To determine whether PI3K inhibition increased the sensitivity of stroma-exposed CLL cells by increasing priming, PB-derived CLL cells cultured with or without StromaNKTert cells for 24 hours and were examined using Annexin-PI and BH3 profiling. […] Stromal co-culture of four CLL patient samples led to protection from apoptosis in untreated cells.

INA-6 and LB cells = assay: Growth of MM cells treated with 3-MA; assay type: cell-based, human; conditions: up to 100 μM; 24 h
Protocol: P110 δ positive LB cells (♦) were treated with 3-MA (0-100 μM) for 24 h. Data represent means (±SD) of triplicate cultures.

LB cells = assay: Subcutaneous human MM xenograft model; assay type: in vivo
Protocol: CB17 SCID mice (48-54 days old) were purchased from Charles River Laboratories (Wilmington, Mass.). All animal studies were conducted according to protocols approved by the Animal Ethics Committee of the Dana-Farber Cancer Institute. Mice were inoculated subcutaneously in the right flank with 3×10^6 LB cells in 100 μL RPMI-1640. When tumors were palpable, mice were assigned into the treatment groups receiving 10 mg/kg or 30 mg/kg gavages twice daily; and 7 mice in the control group receiving vehicle alone. Caliper measurements of the longest perpendicular tumor diameters were performed every alternate day to estimate the tumor volume using the following formula representing the 3D volume of an ellipse: 4/3× (width/2)2× (length/2). Animals were sacrificed when tumors reached 2 cm or the mice appeared moribund. Survival was evaluated from the first day of treatment until death. […] The images were captured with a canon IXY digital 700 camera. Ex vivo analysis of tumor images was captured with a LEICA DM IL microscope and LEICA DFC300 FX camera at 40 u/0.60 (Leica, Heidelberg, Germany).
Mean tumor volume was calculated as in Materials and Methods, FIG. 36A. Error bars represent SD (±).
Tumors harvested from Compound II (30 mg/kg) treated mouse (right panel) and control mouse (left panel) were subjected to immuno-histochemistric analysis using CD31 and P-AKT Abs. CD31 and P-AKT positive cells are dark brown, FIG. 36D.
Survival was evaluated from the first day of treatment until sacrifice using Kaplan-Meier curves, FIG. 36C.
Tumor tissues were harvested from mice treated with control vehicle or Compound II (30 mg/kg). Protein levels of phosphorylated of PDK-1 and AKT (Ser473) were determined by western blotting of cell lysates, FIG. 36E. Actin was used as a loading control.

INA-6 cells = assay: SCID-hu model, INA-6 cells in human bone chip, serum shuIL-6R ELISA; assay type: in vivo, SCID mice; conditions: 10 or 30 mg/kg daily for 4 weeks
Protocol: Human fetal bone grafts were implanted into CB17 SCID-mice (SCID-hu). Four weeks following bone implantation, 2.5×10^6 INA-6 cells were injected directly into the human BM cavity in the graft in a final volume of 100 μl of RPMI-1640 medium. An increase in the levels of soluble human IL-6 receptor (shulL-6R) from INA-6 cells was used as an indicator of MM cell growth and burden of disease in SCID-hu mice. Mice developed measurable serum shulL-6R approximately 4 weeks following INA-6 cell injection, and then received either 10 or 30 mg/kg drug or vehicle alone daily for […]. Blood samples were collected and assessed for shulL-6R levels using an enzyme-linked immunosorbent assay (ELISA, R&D Systems. Minneapolis Minn.).
Growth of INA-6 cells engrafted in human bone chips in SCID mice was monitored by serial serum measurements of shulL-6R. […] Error bars indicate SD (±).
In order to examine the activity of compound II on MM cell growth in the context of the human BM microenvironment in vivo, a SCID-hu model was used in which IL-6 dependent INA-6 cells are directly injected into a human bone chip implanted subcutaneously in SCID-mice. This model recapitulates the human BM microenvironment with human IL-6/BMSC-dependent growth of INA-6 human MM cells. These SCID-hu mice were treated with compound II or vehicle alone daily for 4 weeks, and serum shulL-6R monitored as a marker tumor burden. […]

class II PI3K CIIbeta = class II PI3K CIIbeta (Homo sapiens, UniProt O00750); assay: IC50 profile across kinases, InvitroGen Adapta assay; assay type: biochemical
Class III PI3K hVPS34 = Class III PI3K hVPS34 (Homo sapiens, UniProt Q8NEB9); conditions: read-out: Class III PI3K, IC50 hVPS34; InvitroGen Adapta assay
Class III PI3K hVPS34, sequence (Q8NEB9 whole entry): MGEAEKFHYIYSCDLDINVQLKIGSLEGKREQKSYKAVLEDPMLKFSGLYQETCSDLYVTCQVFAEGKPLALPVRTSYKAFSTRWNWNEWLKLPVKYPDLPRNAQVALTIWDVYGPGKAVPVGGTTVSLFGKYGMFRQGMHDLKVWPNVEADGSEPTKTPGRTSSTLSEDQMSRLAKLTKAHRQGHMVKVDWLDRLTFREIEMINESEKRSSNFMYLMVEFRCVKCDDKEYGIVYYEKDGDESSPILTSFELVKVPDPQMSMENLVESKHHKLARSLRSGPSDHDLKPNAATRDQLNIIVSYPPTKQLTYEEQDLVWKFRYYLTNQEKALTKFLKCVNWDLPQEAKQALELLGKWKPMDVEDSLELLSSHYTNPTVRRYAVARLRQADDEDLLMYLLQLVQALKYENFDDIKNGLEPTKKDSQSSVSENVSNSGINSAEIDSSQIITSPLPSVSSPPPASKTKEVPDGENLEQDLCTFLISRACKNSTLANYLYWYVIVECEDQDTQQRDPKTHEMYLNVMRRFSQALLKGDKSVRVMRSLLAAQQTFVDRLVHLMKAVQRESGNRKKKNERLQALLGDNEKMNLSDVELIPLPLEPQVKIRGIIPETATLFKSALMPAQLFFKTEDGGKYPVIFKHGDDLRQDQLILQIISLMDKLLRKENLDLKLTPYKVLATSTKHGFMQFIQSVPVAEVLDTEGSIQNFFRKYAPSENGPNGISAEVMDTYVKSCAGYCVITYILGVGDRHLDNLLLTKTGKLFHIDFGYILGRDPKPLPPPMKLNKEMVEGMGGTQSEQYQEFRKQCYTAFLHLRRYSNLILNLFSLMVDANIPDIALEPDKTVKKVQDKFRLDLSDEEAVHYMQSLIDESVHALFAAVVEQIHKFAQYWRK

class II PI3K CIIbeta, sequence (O00750 whole entry): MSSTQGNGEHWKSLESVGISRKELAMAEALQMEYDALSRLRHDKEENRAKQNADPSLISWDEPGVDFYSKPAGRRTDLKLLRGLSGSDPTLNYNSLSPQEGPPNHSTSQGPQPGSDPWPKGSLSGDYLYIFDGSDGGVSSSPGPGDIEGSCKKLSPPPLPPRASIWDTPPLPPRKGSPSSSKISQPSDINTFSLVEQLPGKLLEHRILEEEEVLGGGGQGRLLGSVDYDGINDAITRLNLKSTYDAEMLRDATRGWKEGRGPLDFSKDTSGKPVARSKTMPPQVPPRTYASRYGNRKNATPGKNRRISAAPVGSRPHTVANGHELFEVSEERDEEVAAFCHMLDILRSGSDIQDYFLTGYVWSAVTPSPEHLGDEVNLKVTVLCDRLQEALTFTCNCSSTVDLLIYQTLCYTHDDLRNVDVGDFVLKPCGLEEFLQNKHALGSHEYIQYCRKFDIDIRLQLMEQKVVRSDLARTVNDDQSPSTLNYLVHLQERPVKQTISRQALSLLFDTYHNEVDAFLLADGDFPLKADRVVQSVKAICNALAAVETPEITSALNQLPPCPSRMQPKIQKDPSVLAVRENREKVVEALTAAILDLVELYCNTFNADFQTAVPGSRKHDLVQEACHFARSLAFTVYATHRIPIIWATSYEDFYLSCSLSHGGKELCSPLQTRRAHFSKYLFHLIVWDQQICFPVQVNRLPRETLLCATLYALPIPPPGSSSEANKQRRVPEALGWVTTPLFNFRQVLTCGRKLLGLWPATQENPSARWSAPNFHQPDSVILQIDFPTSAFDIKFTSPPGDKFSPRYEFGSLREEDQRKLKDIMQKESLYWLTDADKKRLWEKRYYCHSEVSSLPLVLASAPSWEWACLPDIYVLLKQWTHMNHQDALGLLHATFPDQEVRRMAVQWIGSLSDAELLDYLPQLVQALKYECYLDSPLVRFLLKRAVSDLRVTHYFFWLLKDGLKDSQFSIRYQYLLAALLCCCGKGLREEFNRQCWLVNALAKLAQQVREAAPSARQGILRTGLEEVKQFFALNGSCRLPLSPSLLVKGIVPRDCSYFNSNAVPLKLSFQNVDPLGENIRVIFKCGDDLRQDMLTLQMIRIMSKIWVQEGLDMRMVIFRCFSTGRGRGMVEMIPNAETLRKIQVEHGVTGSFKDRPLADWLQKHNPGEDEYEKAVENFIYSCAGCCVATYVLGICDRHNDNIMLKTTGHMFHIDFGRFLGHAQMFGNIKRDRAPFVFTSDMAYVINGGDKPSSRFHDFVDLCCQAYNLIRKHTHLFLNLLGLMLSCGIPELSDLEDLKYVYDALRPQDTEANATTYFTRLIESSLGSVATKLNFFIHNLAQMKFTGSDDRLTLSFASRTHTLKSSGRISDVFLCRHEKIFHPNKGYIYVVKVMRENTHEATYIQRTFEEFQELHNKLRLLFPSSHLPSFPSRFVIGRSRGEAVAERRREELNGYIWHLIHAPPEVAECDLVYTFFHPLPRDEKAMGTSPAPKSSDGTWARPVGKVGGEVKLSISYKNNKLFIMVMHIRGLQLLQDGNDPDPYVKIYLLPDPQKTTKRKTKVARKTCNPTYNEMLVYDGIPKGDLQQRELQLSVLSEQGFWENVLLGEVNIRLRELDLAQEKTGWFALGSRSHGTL

## CN(C)CC[C@H](CSc1ccccc1)Nc1ccc(S(=O)(=O)NC(=O)c2ccc(N3CCN(Cc4ccccc4-c4ccc(Cl)cc4)CC3)cc2)cc1[N+](=O)[O-] [ABT-737, reference compound]
[1]
  CLL cell viability in stromal co-culture, single agent: profound stroma-mediated resistance

## Cn1cnc(N)c2ncnc1-2 [Compound 3-MA, 3-Methyladenine]
INA-6 and LB cells
  cytotoxicity in INA-6 and LB cells: No cytotoxicity

## CC(Nc1ncnc2[nH]cnc12)c1nc2ccc(F)cc2c(=O)n1-c1ccccc1 (stereo not drawn) [Compound II, 2-(1-(9H-purin-6-ylamino)ethyl)-6-fluoro-3-phenylquinazolin-4(3H)-one]
LB cells; 10 mg/kg or 30 mg/kg orally twice a day, n=7
  MM tumor growth: significantly reduced
LB cells; 30 mg/kg
  CD31 positive cells and microvessel density: significantly decreased
LB cells; 30 mg/kg, immunohistochemical and immunoblot analysis
  p-Akt and p-PDK-1 in tumor: significantly inhibited
LB cells; mouse, in vivo
  body weight: did not affect body weight
INA-6 cells
  tumor growth (serum shuIL-6R): significantly inhibited tumor growth

## Cn1c(=O)n(-c2ccc(C(C)(C)C#N)cc2)c2c3cc(-c4cnc5ccccc5c4)ccc3ncc21 [NVP-BEZ-235]
Class II PI3K CIIbeta
  IC50: 3 nM
Class III PI3K hVPS34
  IC50: 6 nM
